Results on 17 compounds are retold here after PubChem BioAssay (NCI).

Among the test systems are ACHN renal; IGROV1 ovarian; MCF7 breast; MDA-MB-231 breast; NCI-H522 lung; RXF 393 renal; SF-539 CNS; SNB-19 CNS; SR leukemia.
Experiment in all cases: NCI tumour cell line growth inhibition, 48 h

Each structure is given as a SMILES string. Values joined by “and” are separate entries in the source; they are usually repeats but may differ in a detail not shown here. Equal values may be shown once.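 Dose response: 5 concentrations. Exposure: 48 h. Format: 96-well plates. Endpoint: linear interpolation; highest concentration if not reached. GI50: concentration for 50% inhibition of growth. The concentration for full growth arrest is given as TGI.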

For `COc1cc(C2C=C(c3cccc(NC(C)=O)c3)Nc3ncnn32)cc(OC)c1OC` (stereo not drawn), the GI50 is 3.47 µM in the assay with ACHN renal; 0.65 µM in the assay on IGROV1 ovarian; 0.317 µM in the assay with MCF7 breast; 2.11 µM in the assay with MDA-MB-231 breast; 1.49 µM with NCI-H522 lung; 0.576 µM with RXF 393 renal. In addition, the GI50 in the assay with SF-539 CNS is 0.367 µM; in the assay with SNB-19 CNS it was 1.21 µM; in the assay on SR leukemia it was 0.437 µM. In addition, the TGI with ACHN renal was > 100 µM; in the assay with IGROV1 ovarian it was > 26.5 µM; in the assay with MCF7 breast it was > 100 µM; in the assay with MDA-MB-231 breast, > 55.9 µM; in the assay on NCI-H522 lung, > 100 µM; with RXF 393 renal it was > 100 µM. Also, the TGI in the assay with SF-539 CNS was 2 µM; in the assay on SNB-19 CNS it was > 100 µM.

With `COc1cc(OC)c([C@@H]2OC(=O)C3C2C(=O)O[C@H]3c2cc(OC)c(OC)cc2OC)cc1OC` (stereo partly drawn), the TGI was > 100 µM with ACHN renal; > 10 µM with IGROV1 ovarian; > 100 µM with RXF 393 renal; > 100 µM with SF-539 CNS; > 100 µM in the assay on SNB-19 CNS; > 100 µM in the assay on SR leukemia.

Regarding `N#Cc1cn(C2OC(CO)C(O)C2O)c2ncnc(N)c12` (stereo not drawn), the GI50 is < 0.01 µM with ACHN renal; 0.0266 µM in the assay with IGROV1 ovarian; 0.0251 µM and 0.045 µM and < 0.0169 µM with MCF7 breast; 0.0293 µM in the assay with NCI-H522 lung; 0.0161 µM with RXF 393 renal. In addition, the TGI in the assay on ACHN renal is 0.02 µM; in the assay on MDA-MB-231 breast it was > 100 µM; in the assay with RXF 393 renal it was 0.0958 µM and 0.0708 µM; in the assay on SR leukemia, > 100 µM.

With `CC1=C(C(=O)Nc2ccccc2C)C(c2ccccc2)C(C(=O)Nc2ccccc2C)=C(C)N1`, the TGI in the assay with ACHN renal was > 100 µM; in the assay on IGROV1 ovarian it was > 100 µM; in the assay on NCI-H522 lung it was > 100 µM; in the assay on RXF 393 renal, 71.6 µM; with SF-539 CNS it was > 100 µM; with SNB-19 CNS it was > 100 µM. This compound also returned a TGI in the assay with SR leukemia of 42.5 µM.

On to `Cc1cc2c(c(C#N)c1C)NC(=O)CCC2=O`, for which the TGI with ACHN renal, in the assay on IGROV1 ovarian, in the assay on RXF 393 renal, with SF-539 CNS and in the assay on SR leukemia was > 100 µM throughout.

For `N#CCC(=O)Nc1cccc(C(F)(F)F)c1`, the TGI in the assay on ACHN renal, in the assay with IGROV1 ovarian, with NCI-H522 lung, in the assay on RXF 393 renal, with SF-539 CNS and with SNB-19 CNS was > 100 µM each time. In addition, the TGI in the assay on SR leukemia is > 100 µM.

Consider `CCOC(=O)C(=O)Nc1nc2c(s1)C(=O)c1ccccc1C2=O`, for which the TGI in the assay on ACHN renal is 28.1 µM; with IGROV1 ovarian it was 37.6 µM; with NCI-H522 lung, 29.3 µM; in the assay with SF-539 CNS it was 31.5 µM; in the assay on SNB-19 CNS it was 31.9 µM; in the assay with SR leukemia, 23.4 µM.

With `Cc1ccc(OCC(=O)N2N=C(c3ccccc3)CC2(O)c2ccccc2)cc1` (stereo not drawn), the TGI in the assay on ACHN renal, in the assay with IGROV1 ovarian, in the assay with NCI-H522 lung, in the assay on SF-539 CNS, with SNB-19 CNS and with SR leukemia was > 100 µM each time.

Regarding `CCc1cccc(C(C)C)c1NC(=O)C(=O)C(Cc1nc2ccccc2[nH]c1=O)C(=O)OC` (stereo not drawn), the TGI in the assay on ACHN renal, in the assay with IGROV1 ovarian, in the assay with NCI-H522 lung, in the assay with RXF 393 renal, with SF-539 CNS and with SNB-19 CNS was > 100 µM each time. Also, in the assay with SR leukemia, the TGI was > 100 µM.

Take `CNC(P(=O)([O-])[O-])P(=O)([O-])[O-].N.N.[Pt+2]`: the GI50 in the assay on IGROV1 ovarian, in the assay on NCI-H522 lung, with RXF 393 renal, in the assay on SF-539 CNS and with SNB-19 CNS was > 100 µM throughout. Also, the TGI with IGROV1 ovarian, in the assay on NCI-H522 lung, with RXF 393 renal, with SF-539 CNS and in the assay on SNB-19 CNS was > 100 µM each time.

As for `Cn1c2c(c3ccccc31)CCN(CCCCN1CCc3c(n(C)c4ccccc34)C1=O)C2`, the TGI with ACHN renal, in the assay with IGROV1 ovarian, in the assay on NCI-H522 lung, in the assay on RXF 393 renal, in the assay on SF-539 CNS and with SNB-19 CNS was > 100 µM throughout.

As for `Cc1cc(C)nc(NS(=O)(=O)c2ccc(Nc3c4ccccc4nc4c(C(=O)Nc5ccc(S(=O)(=O)N=C(N)N)cc5)ccc(Cl)c34)cc2)n1`, the TGI with ACHN renal was > 100 µM; in the assay on NCI-H522 lung it was 29.4 µM; with RXF 393 renal, 38.6 µM; in the assay on SF-539 CNS it was 45.6 µM; in the assay on SNB-19 CNS, 46.7 µM; in the assay on SR leukemia, 65.4 µM.

For `CC1=C(C(=O)Nc2c(C)cccc2C)C(c2ccc3c(c2)OCO3)C(C(=O)Nc2c(C)cccc2C)=C(C)N1`, the TGI in the assay with ACHN renal came to 35.2 µM; in the assay on IGROV1 ovarian it was 28.5 µM; in the assay with NCI-H522 lung, 31.7 µM; in the assay with RXF 393 renal, 33.9 µM; with SF-539 CNS, 37.7 µM; in the assay on SNB-19 CNS it was 32 µM. For the same compound, the TGI in the assay with SR leukemia came out at 90.9 µM.

With `COC(=O)N[C@H]1CCc2c(Br)c(OC)c(OC)c(OC)c2-c2ccc(SC)c(=O)cc21`, the GI50 with ACHN renal, in the assay with IGROV1 ovarian, in the assay on MCF7 breast, in the assay with MDA-MB-231 breast, with NCI-H522 lung and in the assay with SF-539 CNS was < 0.01 µM each time. Moreover, the GI50 in the assay with SNB-19 CNS and with SR leukemia was < 0.01 µM in each case. Moreover, the TGI is 25.4 µM with ACHN renal; > 39.5 µM in the assay with IGROV1 ovarian; 12.4 µM in the assay with MCF7 breast; 14 µM in the assay on MDA-MB-231 breast; 1.22 µM with NCI-H522 lung; < 0.01 µM with SF-539 CNS. The figures for the TGI in the assay with SNB-19 CNS and in the assay on SR leukemia were > 49.7 µM and 22.4 µM, respectively.

In the case of `O=C(O)CSc1n[nH]c(-c2ccc(O)cc2)n1`, the TGI in the assay with ACHN renal, in the assay on IGROV1 ovarian, in the assay with NCI-H522 lung, in the assay with SF-539 CNS, with SNB-19 CNS and with SR leukemia was > 100 µM each time.

For `O=C(O)c1c(-c2cccc3ccccc23)sc(-c2cccc3ccccc23)c1C(=O)O`, the TGI in the assay on ACHN renal, in the assay with IGROV1 ovarian, with NCI-H522 lung, in the assay with RXF 393 renal, in the assay on SF-539 CNS and with SNB-19 CNS was > 100 µM throughout. The TGI with SR leukemia was > 100 µM.

For `COC(=O)C1CC2(CC3=C1CCCC3)OCCO2` (stereo not drawn), the TGI in the assay on IGROV1 ovarian, in the assay on NCI-H522 lung, with RXF 393 renal, in the assay on SF-539 CNS and with SNB-19 CNS was > 100 µM each time.
